{
  "source": "patent US6703237B2",
  "about": "“Methods and formulations for mediating adeno-associated virus (AAV) attachment and infection and methods for purifying AAV” (priority 1998, dated 2004)",
  "molecules": {"B1": {"name": "chondroitinase AC: GAG lyase from Seikagagku; cleaves only chondroitin sulfate type A and C (protein, UniProt Q59288 23-700, looked up)", "Chondroitinase-AC": "QQTGTAELIMKRVMLDLKKPLRNMDKVAEKNLNTLQPDGSWKDVPYKDDAMTNWLPNNHLLQLETIIQAYIEKDSHYYGDDKVFDQISKAFKYWYDSDPKSRNWWHNEIATPQALGEMLILMRYGKKPLDEALVHKLTERMKRGEPEKKTGANKTDIALHYFYRALLTSDEALLSFAVKELFYPVQFVHYEEGLQYDYSYLQHGPQLQISSYGAVFITGVLKLANYVRDTPYALSTEKLAIFSKYYRDSYLKAIRGSYMDFNVEGRGVSRPDILNKKAEKKRLLVAKMIDLKHTEEWADAIARTDSTVAAGYKIEPYHHQFWNGDYVQHLRPAYSFNVRMVSKRTRRSESGNKENLLGRYLSDGATNIQLRGPEYYNIMPVWEWDKIPGITSRDYLTDRPLTKLWGEQGSNDFAGGVSDGVYGASAYALDYDSLQAKKAWFFFDKEIVCLGAGINSNAPENITTTLNQSWLNGPVISTAGKTGRGKITTFKAQGQFWLLHDAIGYYFPEGANLSLSTQSQKGNWFHINNSHSKDEVSGDVFKLWINHGARPENAQYAYIVLPGINKPEEIKKYNGTAPKVLANTNQLQAVYHQQLDMVQAIFYTAGKLSVAGIEIETDKPCAVLIKHINGKQVIWAADPLQKEKTAVLSIRDLKTGKTNRVKIDFPQQEFAGATVELK"}, "B2": {"name": "heparinase: GAG lyase purchased from Sigma; cleaves linkages found in heparan sulfate (protein, UniProt Q05819 22-384, looked up)", "Heparin lyase I": "QQKKSGNIPYRVNVQADSAKQKAIIDNKWVAVGINKPYALQYDDKLRFNGKPSYRFELKAEDNSLEGYAAGETKGRTELSYSYATTNDFKKFPPSVYQNAQKLKTVYHYGKGICEQGSSRSYTFSVYIPSSFPDNATTIFAQWHGAPSRTLVATPEGEIKTLSIEEFLALYDRMIFKKNIAHDKVEKKDKDGKITYVAGKPNGWKVEQGGYPTLAFGFSKGYFYIKANSDRQWLTDKADRNNANPENSEVMKPYSSEYKTSTIAYKMPFAQFPKDCWITFDVAIDWTKYGKEANTILKPGKLDVMMTYTKNKKPQKAHIVNQQEILIGRNDDDGYYFKFGIYRVGNSTVPVTYNLSGYSETAR"}, "B3": {"name": "heparitinase: GAG lyase purchased from Sigma; cleaves linkages found in heparan sulfate (protein, UniProt Q59289 25-659, looked up)", "Heparin-sulfate lyase": "QSSSITRKDFDHINLEYSGLEKVNKAVAAGNYDDAAKALLAYYREKSKAREPDFSNAEKPADIRQPIDKVTREMADKALVHQFQPHKGYGYFDYGKDINWQMWPVKDNEVRWQLHRVKWWQAMALVYHATGDEKYAREWVYQYSDWARKNPLGLSQDNDKFVWRPLEVSDRVQSLPPTFSLFVNSPAFTPAFLMEFLNSYHQQADYLSTHYAEQGNHRLFEAQRNLFAGVSFPEFKDSPRWRQTGISVLNTEIKKQVYADGMQFELSPIYHVAAIDIFLKAYGSAKRVNLEKEFPQSYVQTVENMIMALISISLPDYNTPMFGDSWITDKNFRMAQFASWARVFPANQAIKYFATDGKQGKAPNFLSKALSNAGFYTFRSGWDKNATVMVLKASPPGEFHAQPDNGTFELFIKGRNFTPDAGVFVYSGDEAIMKLRNWYRQTRIHSTLTLDNQNMVITKARQNKWETGNNLDVLTYTNPSYPNLDHQRSVLFINKKYFLVIDRAIGEATGNLGVHWQLKEDSNPVFDKTKNRVYTTYRDGNNLMIQSLNADRTSLNEEEGKVSYVYNKELKRPAFVFEKPKKNAGTQNFVSIVYPYDGQKAPEISIRENKGNDFEKGKLNLTLTINGKQQLVLVP"}},
  "key": {"3H-wt AAV-2": {"system": "3H-wt AAV-2", "experiment": "Inhibition of 3H-wt AAV-2 binding to HeLa cells by soluble GAGs", "settings": "90 min at 4° C.", "procedure": "FIG. 2 illustrates that soluble heparin inhibits binding of AAV to the cell surface. After pre-incubation of 3H-wt AAV-2 with increasing concentrations of the indicated GAGs or the GAG analogue dextran sulfate, labeled virus was adsorbed to HeLa cells for 90 minutes at 4° C. Unbound virus was removed by three washes with ice cold binding buffer and radioactivity was quantitated as described in methods. Data is represented as the average % inhibition relative to the CPM bound in the absence of soluble GAG.\n(§1) For direct binding assays, ^3H-labeled wtAAV-2 was incubated with cells either attached to plates or in suspension, as indicated, at a ratio of 4×10^11 particles/3×10^5 cells for 90 minutes at 4° C. in HBSB. Cells were then washed 3 times in ice cold HBSB to remove unbound virus, and were solubilized in 0.3 N NaOH. After neutralization with glacial acetic acid, cell-associated radioactivity was quantitated in a scintillation counter. For inhibition studies, and after enzymatic treatments, ^3H-AAV was bound to adherent HeLa cells. Binding to wild type CHO and CHO cell mutants was done with suspended cells. […] Non-specific binding was determined in the presence of 100-fold excess unlabeled wt AAV (previously dialyzed in HBS, 10% glycerol). Binding of Cy3-labeled virus was done on wild type CHO and pgsA-745 cells grown on coverslips. After fixation in 4% paraformaldehyde for 20 minutes at room temperature, cells were mounted on slides and bound Cy3 labeled virus was detected by confocal microscopy. […]\nTo further examine the observed specificity and to determine whether GAGs were inhibiting binding of the AAV virions to the cell surface, ^3H-wt AAV was incubated with GAGs (heparin, dermatan sulfate, chondroitin sulfate A, chondroitin sulfate C, dextran sulfate) at various concentrations. After incubation with cells, the mixture was washed and cells were solubilized to quantify bound virus. […]"}, "rAAV-LacZ [1]": {"system": "rAAV-LacZ", "experiment": "Inhibition of rAAV-LacZ transduction of HeLa cells by soluble GAGs", "type": "cell-based, AAV-2", "procedure": "FIGS. 1A and 1B illustrate the inhibition of AAV infection by various glycosaminoglycans. In the data shown in FIG. 1A, rAAV was incubated with the indicated concentrations of heparin (solid squares), chondroitin sulfate B (dermatan sulfate) (open circles), chondroitin sulfate A (open diamonds) or chondroitin sulfate C (open triangles) for 1 hour at 37° C. prior to a 1-hour adsorption period of the virus/GAG mixture to HeLa cells for infection. β-galactosidase activity was assayed 44 hours post-infection using a Galacto-Light Plus kit (Tropix Inc.), and measured in a luminometer. Each point denotes the average % decrease in Relative Light Units (RLU) per ug of protein relative to the maximum RLU/μg protein obtained in experiments without GAG. In the data shown in FIG. 1B, HeLa cells were preincubated with increasing concentrations of heparin at 37° C. for 1 hour. After thorough washing, cells were infected with rAAV as described above. Data points represent the average % maximum RLU/ug protein obtained without heparin preincubation.\nrAAV-LacZ at an MOI of 2 was incubated in DMEM-H media in the presence or absence of indicated soluble GAGs at 1.0, 5.0, 10, 20, 30 μg/ml for 1 h at 37° C. For infection, rAAV-LacZ or the virus/GAG mixture was incubated with 2×10^5 HeLa cells for 1 h at 37° C. in a 5% CO2 chamber. […]"}, "rAAV-LacZ [2]": {"system": "rAAV-LacZ", "experiment": "rAAV-lacZ transduction of HeLa cells with low concentrations of heparin", "type": "cell-based, AAV-2", "settings": "heparin 0.001 and 0.004 μg/mL, 48 h after infection", "procedure": "HeLa cells were infected with rAAV-lacZ virus in the presence or absence of heparin, at the indicated concentrations, for one hour at 37° C. […] Results are reported as the mean and standard deviation of one experiment performed in triplicate.\nHeLa cells were infected with rAAV-lacZ virus in the presence or absence of heparin, at concentrations of 0 μg/mL, 0.001 μg/mL, and 0.004 μg/mL, for one hour at 37° C. […] The results of this experiment are shown in FIG. 6 as the mean and standard deviation of one experiment performed in triplicate."}, "[3]": {"system": "cell surface glycosaminoglycans of HeLa cells", "experiment": "3H-AAV binding to HeLa cells after GAG lyase digestion of cell surface GAGs", "settings": "maximum concentration of enzyme tested", "procedure": "(§2) FIGS. 3A and 3B illustrate the effect of enzymatic digestion of cell surface glycosaminoglycans on AAV binding and infection. In the data shown in FIG. 3A, HeLa cells were treated with the indicated concentrations of the following GAG lyases: heparitinase (solid squares), heparinase I (open diamonds), chondroitinase ABC (open circles), or chondroitinase AC (open triangles), as described in Example 13, below. After thorough washing, the ability of AAV to bind the cell surface was assessed as described in Example 12, below. Data points represent the average % reduction in AAV binding relative to AAV binding obtained without enzymatic treatment. In the data shown in FIG. 3B, HeLa cells were treated with heparitinase or heparinase I as described herein. After thorough washing, rAAV was incubated with cells for a I hour adsorption period at 37° C. Cells were harvested 44 hours post-infection and assayed for β-galactosidase activity. Results are shown as the average % reduction in AAV transduction relative to transduction observed in the absence of enzymatic treatment. Data points represent the mean and standard deviation of experiments performed in triplicate.\nas §1\nGAG lyases were reconstituted in phosphate buffered saline (PBS). […] Prior to use, each enzyme was tested for activity by a standard method used to determine specific activity of GAG lyases, except that enzyme activity was monitored under the conditions used for digestion, PBS pH 7.4 at 37° C. […]\nSubconfluent HeLa cells were treated with various concentrations of each specific enzyme and assessed for ^3H-AAV binding."}, "[4]": {"system": "cell surface glycosaminoglycans of HeLa cells", "experiment": "rAAV-LacZ transduction of HeLa cells after GAG lyase digestion", "type": "cell-based", "settings": "for reduction of rAAV transduction compared to untreated control cells: HeLa cells treated with various concentrations of enzyme", "procedure": "as §2\nGAG lyases were reconstituted in phosphate buffered saline (PBS). For enzymatic digestion of cell surface GAGs, 3×10^4 HeLa cells were washed and incubated with the indicated concentrations of GAG lyases in PBS containing 0.1%BSA, 0.2% gelatin and 0.1% glucose (digestion buffer) for 1 hour at 37° C. in a 5% CO2 chamber. Cells were then washed four times with digestion buffer and subjected to rAAV infection as described above. Prior to use, each enzyme was tested for activity by a standard method used to determine specific activity of GAG lyases, except that enzyme activity was monitored under the conditions used for digestion, PBS pH 7.4 at 37° C. (Linhardt, (1994) Analysis of glycosaminoglycans with polysaccharide lyases, p. 17.13.17-17.13.32. in K. Janssen (ed.), Current Protocols in Molecular Biology, vol. 3. John Wiley & Sons, Inc., New York). Cells remained attached to the plate after all enzymatic treatments. […]"}},
  "data": [
    {"molecule": "dextran sulfate", "values": [
      {"measurement": "inhibition of AAV binding", "setting": "3H-wt AAV-2; 30 μg/ml", "value": 36, "unit": "%"}
    ]},
    {"molecule": "heparin", "values": [
      {"measurement": "inhibition of rAAV transduction after preincubation of cells", "setting": "rAAV-LacZ [1]; HeLa cells preincubated with heparin up to 20 μg/ml, washed before infection", "value": "less than 20%"},
      {"measurement": "inhibition of AAV binding", "setting": "3H-wt AAV-2; 5 μg/ml", "value": 90, "unit": "%"},
      {"measurement": "effect on rAAV transduction (β-galactosidase, RLU/μg protein)", "setting": "rAAV-LacZ [2]", "value": "enhance rAAV transduction"}
    ]},
    {"molecule": "chondroitin sulfate B", "values": [
      {"measurement": "inhibition of rAAV transduction (β-galactosidase activity)", "setting": "rAAV-LacZ [1]; 30 μg/ml GAG, HeLa cells, 44 h post-infection", "value": 71, "unit": "%"},
      {"measurement": "inhibition of AAV binding", "setting": "3H-wt AAV-2; 30 μg/ml", "value": 51, "unit": "%"}
    ]},
    {"molecule": "chondroitinase ABC", "values": [
      {"measurement": "reduction of 3H-AAV binding to the cell surface after enzymatic treatment", "setting": "[3]", "value": "did not result in any reduction"}
    ]},
    {"molecule": "B1", "values": [
      {"measurement": "reduction of 3H-AAV binding to the cell surface after enzymatic treatment", "setting": "[3]", "value": "did not result in any reduction"}
    ]},
    {"molecule": "B2", "values": [
      {"measurement": "reduction of 3H-AAV binding to the cell surface after enzymatic treatment", "setting": "[3]", "value": 66, "unit": "%"},
      {"measurement": "reduction of rAAV transduction compared to untreated control cells", "setting": "[4]", "value": 80, "unit": "%"}
    ]},
    {"molecule": "B3", "values": [
      {"measurement": "reduction of 3H-AAV binding to the cell surface after enzymatic treatment", "setting": "[3]", "value": 73, "unit": "%"},
      {"measurement": "reduction of AAV infection", "setting": "[4]; 0.425 mIU/ml enzyme, HeLa cells", "value": "up to 72%"},
      {"measurement": "reduction of rAAV transduction compared to untreated control cells", "setting": "[4]", "value": 80, "unit": "%"}
    ]}
  ]
}
